How the values were obtained:
RT-PCR reaction = conditions: final concentration of 1 mM
Procedure: In order to quantify the generated cDNA after RT reactions, 2 μl of each RT reaction mixture was transferred to a 20 μl PCR mixture.

cDNA synthesis = assay: Reverse transcription / PCR in presence of SYBRGREEN dye; format: biochemical; conditions: final concentration of 100×
Procedure: Reverse transcription reactions containing 0×, 0.001×, 0.01×, 0.1×, 1×, 10× and 100× SYBRGREEN® dye were performed. In order to quantify the generated cDNA after RT-reaction, 2 μl of the RT reaction was transferred to a 20 μl PCR mixture. PCR products were analyzed by gel-electrophoresis.

SMILES | reduction in signals produced from an RT-PCR reaction (RT-PCR reaction) | cDNA synthesis (cDNA synthesis)
NCCCNCCCCNCCCN [spermine] | up to 4 fold | 
CCCN(CCCN(C)C)c1cc(/C=C2/Sc3ccccc3N2C)c2ccccc2[n+]1-c1ccccc1 [SYBRGREEN® dye] |  | total loss of cDNA synthesis

From patent US6872818B2, “Ammonium sulfate for neutralization of inhibitory effects” (QIAGEN GmbH, priority 2001, dated 2005)
